Reference: ChEMBL document CHEMBL3044753, “Polyamines May Modulate Both G Protein-Coupled Receptors and G Proteins” (Med Chem Res, 2004)
Activity calls are given as the source filed them. The calls are words filed in the database; no cut-off is given here.

Tests used:
[1] = biological target: T1, Muscarinic acetylcholine receptor M4 (Homo sapiens) (UniProt P08173); assay: Binding affinity to Homo sapiens (human) recombinant muscarinic M4 receptor expressed in CHO cells assessed as [35S]GTPgammaS binding; type: functional, cell-based
T1 sequence (whole entry): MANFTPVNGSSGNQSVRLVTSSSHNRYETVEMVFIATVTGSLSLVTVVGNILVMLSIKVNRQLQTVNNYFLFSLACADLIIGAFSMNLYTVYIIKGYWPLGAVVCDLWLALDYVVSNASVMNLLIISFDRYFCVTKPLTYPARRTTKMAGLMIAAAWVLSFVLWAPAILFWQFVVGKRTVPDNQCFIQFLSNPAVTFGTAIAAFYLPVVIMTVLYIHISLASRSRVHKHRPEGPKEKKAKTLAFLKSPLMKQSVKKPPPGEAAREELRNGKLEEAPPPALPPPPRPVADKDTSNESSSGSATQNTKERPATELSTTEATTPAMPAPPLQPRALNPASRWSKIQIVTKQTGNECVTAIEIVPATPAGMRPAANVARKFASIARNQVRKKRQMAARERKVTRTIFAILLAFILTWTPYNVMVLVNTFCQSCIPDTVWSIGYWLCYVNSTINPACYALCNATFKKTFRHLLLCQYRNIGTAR

[2] = tested on: Right cardiac atrium; assay: Negative […] activity in electrically-paced Cavia porcellus (guinea pig) right atrium assessed as effect on rate measured immediately by isometric transducer analysis in presence of benzalkonium/prazosin relative to arecaidine propargyl ester; type: functional
[3] = tested on: Right cardiac atrium; assay: Negative […] activity in electrically-paced Cavia porcellus (guinea pig) right atrium measured immediately by isometric transducer analysis in presence of ANR 83; type: functional, tissue-based
[4] = tested on: Right cardiac atrium; assay: Negative […] activity in electrically-paced Cavia porcellus (guinea pig) right atrium measured immediately by isometric transducer analysis in presence of atropine; type: functional, tissue-based
[5] = tested on: Left cardiac atrium; assay: Negative […] activity in electrically-paced Cavia porcellus (guinea pig) left atrium measured immediately by isometric transducer analysis in presence of prazosin; type: functional, tissue-based
[6] = tested on: Right cardiac atrium; assay: Negative […] activity in electrically-paced Cavia porcellus (guinea pig) right atrium measured immediately by isometric transducer analysis in presence of DPCPX; type: functional, tissue-based
[7] = tested on: Left cardiac atrium; assay: Negative […] activity in electrically-paced Cavia porcellus (guinea pig) left atrium measured immediately by isometric transducer analysis in presence of benextramine; type: functional, tissue-based
[8] = tested on: Right cardiac atrium; assay: Negative ionotropic activity in electrically-paced Cavia porcellus (guinea pig) right atrium measured immediately by isometric transducer analysis in presence of dihydroergocristine; type: functional, tissue-based
[9] = tested on: Right cardiac atrium; assay: Negative ionotropic activity in electrically-paced Cavia porcellus (guinea pig) right atrium measured after 60 min by isometric transducer analysis in presence of dihydroergocristine; type: functional, tissue-based
[10] = tested on: Right cardiac atrium; assay: Negative ionotropic activity in electrically-paced Cavia porcellus (guinea pig) right atrium assessed as effect on force measured immediately by isometric transducer analysis in absence of benzalkonium/prazosin relative to arecaidine propargyl ester; type: functional
[11] = tested on: Right cardiac atrium; assay: Negative […] activity in electrically-paced Cavia porcellus (guinea pig) right atrium measured immediately by isometric transducer analysis in presence of AM 251; type: functional, tissue-based
[12] = tested on: Left cardiac atrium; assay: Negative […] activity in electrically-paced Cavia porcellus (guinea pig) left atrium measured immediately by isometric transducer analysis in presence of benzalkonium; type: functional, tissue-based
[13] = tested on: Left cardiac atrium; assay: Negative […] activity in electrically-paced Cavia porcellus (guinea pig) left atrium measured immediately by isometric transducer analysis in presence of methoctramine; type: functional, tissue-based
[14] = biological target: T1, Muscarinic acetylcholine receptor M4 (Homo sapiens); assay: Allosteric modulation of Homo sapiens (human) recombinant muscarinic M4 receptor expressed in CHO cells assessed as inhibition of carbachol-induced [35S]GTPgammaS binding; type: functional, cell-based
[15] = tested on: Left cardiac atrium; assay: Negative […] activity in electrically-paced Cavia porcellus (guinea pig) left atrium measured immediately by isometric transducer analysis in presence of benzalkonium/prazosin; type: functional, tissue-based
[16] = tested on: Left cardiac atrium; assay: Reversible negative ionotropic activity in electrically-paced Cavia porcellus (guinea pig) left atrium incubated for 30 min followed by compound-washout measured after 3 hr by isometric transducer analysis; type: functional, tissue-based
[17] = tested on: Right cardiac atrium; assay: Negative ionotropic activity in electrically-paced Cavia porcellus (guinea pig) right atrium assessed as effect on force measured immediately by isometric transducer analysis in presence of benzalkonium/prazosin; type: functional, tissue-based
[18] = tested on: Right cardiac atrium; assay: Negative ionotropic activity in electrically-paced Cavia porcellus (guinea pig) right atrium assessed as effect on force measured immediately by isometric transducer analysis in absence of benzalkonium/prazosin; type: functional, tissue-based
[19] = tested on: Left cardiac atrium; assay: Negative ionotropic activity in electrically-paced Cavia porcellus (guinea pig) left atrium measured immediately by isometric transducer analysis in presence of AM 251; type: functional, tissue-based
[20] = tested on: Right cardiac atrium; assay: Negative ionotropic activity in electrically-paced Cavia porcellus (guinea pig) right atrium measured immediately by isometric transducer analysis in presence of prazosin; type: functional, tissue-based
[21] = tested on: Right cardiac atrium; assay: Negative ionotropic activity in electrically-paced Cavia porcellus (guinea pig) right atrium measured immediately by isometric transducer analysis in presence of thioperamide; type: functional, tissue-based
[22] = tested on: Right cardiac atrium; assay: Reversible negative ionotropic activity in electrically-paced Cavia porcellus (guinea pig) right atrium incubated for few seconds followed by compound washout measured after 3 hr by isometric transducer analysis in absence of benzalkonium/prazosin; type: functional, tissue-based
[23] = tested on: Left cardiac atrium; assay: Reversible negative ionotropic activity in electrically-paced Cavia porcellus (guinea pig) left atrium incubated for few seconds followed by compound washout measured after 3 hr by isometric transducer analysis in absence of benzalkonium/prazosin; type: functional, tissue-based
[24] = tested on: Left cardiac atrium; assay: Negative ionotropic activity in electrically-paced Cavia porcellus (guinea pig) left atrium measured after 60 min by isometric transducer analysis in presence of dihydroergocristine; type: functional, tissue-based
[25] = tested on: Left cardiac atrium; assay: Negative […] activity in electrically-paced Cavia porcellus (guinea pig) left atrium measured immediately by isometric transducer analysis in presence of bupranolol; type: functional, tissue-based
[26] = tested on: Right cardiac atrium; assay: Negative […] activity in electrically-paced Cavia porcellus (guinea pig) right atrium measured immediately by isometric transducer analysis in presence of 4-DAMP mustard; type: functional, tissue-based
[27] = tested on: Right cardiac atrium; assay: Negative […] activity in electrically-paced Cavia porcellus (guinea pig) right atrium measured immediately by isometric transducer analysis in presence of […]; type: functional, tissue-based
[28] = tested on: Left cardiac atrium; assay: Negative […] activity in electrically-paced Cavia porcellus (guinea pig) left atrium measured immediately by isometric transducer analysis in presence of naloxane; type: functional, tissue-based
[29] = tested on: Left cardiac atrium; assay: Negative […] activity in electrically-paced Cavia porcellus (guinea pig) left atrium measured immediately by isometric transducer analysis in presence of dihydroergocristine; type: functional, tissue-based
[30] = tested on: Left cardiac atrium; assay: Negative […] activity in electrically-paced Cavia porcellus (guinea pig) left atrium measured immediately by isometric transducer analysis in presence of benzalkonium/prazosin relative to arecaidine propargyl ester; type: functional
[31] = tested on: Right cardiac atrium; assay: Negative ionotropic activity in electrically-paced Cavia porcellus (guinea pig) right atrium measured immediately by isometric transducer analysis in presence of bupranolol; type: functional, tissue-based
[32] = tested on: Right cardiac atrium; assay: Negative ionotropic activity in electrically-paced Cavia porcellus (guinea pig) right atrium assessed as effect on force measured immediately by isometric transducer analysis in presence of benzalkonium/prazosin relative to arecaidine propargyl ester; type: functional
[33] = tested on: Left cardiac atrium; assay: Negative […] activity in electrically-paced Cavia porcellus (guinea pig) left atrium measured immediately by isometric transducer analysis in presence of pimozide; type: functional, tissue-based
[34] = tested on: Left cardiac atrium; assay: Negative ionotropic activity in electrically-paced Cavia porcellus (guinea pig) left atrium measured immediately by isometric transducer analysis in presence of ANR 83; type: functional, tissue-based
[35] = tested on: Left cardiac atrium; assay: Negative ionotropic activity in electrically-paced Cavia porcellus (guinea pig) left atrium measured immediately by isometric transducer analysis in absence of benzalkonium/prazosin; type: functional, tissue-based

In the case of COc1ccccc1CN1CCC(C2CCN(C(=O)CCCCCCC(=O)N3CCC(C4CCN(Cc5ccccc5OC)CC4)CC3)CC2)CC1 [PIPERTRAMINE AMIDE], the Activity [1] is reported as “inactive”, the Efficacy [2] is reported as 42% and the Activity [3] is reported as “Active”. The Activity [4] was “inactive”, the Activity [5] was “Active” and the Activity [6] was “Active”. For the same molecule, the Activity [7] was “Active”, the Activity [8] was “Active” and the Activity [9] was “Active”. For the same molecule, the Efficacy [10] was 79%, the Activity [11] was “Active” and the Activity [12] was “Active”. The Activity [13] was “inactive”, the Activity [14] was “Active” and the EC50 [15] was 0.0417 nM. For the same molecule, the Activity [16] was “inactive”, the EC50 [17] was 2.29 nM and the EC50 [18] was 1.55 nM. For the same molecule, the Activity [19] was “Active”, the Activity [20] was “Active” and the Activity [21] was “Active”. For the same molecule, the Activity [22] was “Active”, the Activity [23] was “Active” and the Activity [24] was “Active”. For the same molecule, the Activity [25] was “Active”, the Activity [26] was “inactive” and the Activity [27] was “Active”. For the same molecule, the Activity [28] was “Active”, the Activity [29] was “Active” and the Efficacy [30] was 60%. For the same molecule, the Activity [31] was “Active”, the Efficacy [32] was 81% and the Activity [33] was “Active”. The Activity [34] was “Active” and the EC50 [35] was 0.0316 nM.

With COc1ccccc1CN1CCC(C2CCN(CCCCCCCCN3CCC(C4CCN(Cc5ccccc5OC)CC4)CC3)CC2)CC1 [PIPERTRAMINE] the Activity [1] was “inactive”, the Activity [9] was “Active” and the Activity [14] was “Active”. The Activity [16] was “inactive” and the Activity [24] was “Active”.
